Data reported in ChEMBL document CHEMBL4622979, “Non-rigid Diarylmethyl Analogs of Baloxavir as Cap-Dependent Endonuclease Inhibitors of Influenza Viruses” (J Med Chem, 2020).

What was measured:
[1] = Tmax in CD1 mouse brain assessed as (12aR)-12-(Diphenylmethyl)-7-hydroxy-3,4,12,12a-tetrahydro-1H-[1,4]oxazino[3,4-c]pyrido[2,1-f ][1,2,4]triazine-6,8-dione level at 15 mg/kg, po administered as single dose measured up to 24 hrs by LC-MS/MS analysis; assay type: ADME, organism-based; conditions: in vivo
[2] = Cmax in CD1 mouse brain assessed as (12aR)-12-(Diphenylmethyl)-7-hydroxy-3,4,12,12a-tetrahydro-1H-[1,4]oxazino[3,4-c]pyrido[2,1-f ][1,2,4]triazine-6,8-dione level at 15 mg/kg, po administered as single dose measured up to 24 hrs by LC-MS/MS analysis; assay type: ADME, organism-based; set-up: dose 15 mg/kg, route oral; conditions: in vivo
[3] = Cmax in CD1 mouse kidney assessed as (12aR)-12-(Diphenylmethyl)-7-hydroxy-3,4,12,12a-tetrahydro-1H-[1,4]oxazino[3,4-c]pyrido[2,1-f ][1,2,4]triazine-6,8-dione level at 15 mg/kg, po administered as single dose measured up to 24 hrs by LC-MS/MS analysis; assay type: ADME, organism-based; set-up: dose 15 mg/kg, route oral; conditions: in vivo
[4] = Tmax in CD1 mouse small intestine assessed as (12aR)-12-(Diphenylmethyl)-7-hydroxy-3,4,12,12a-tetrahydro-1H-[1,4]oxazino[3,4-c]pyrido[2,1-f ][1,2,4]triazine-6,8-dione level at 15 mg/kg, po administered as single dose measured up to 24 hrs by LC-MS/MS analysis; assay type: ADME, organism-based; conditions: in vivo
[5] = Elimination rate constant in CD1 mouse muscle assessed as (12aR)-12-(Diphenylmethyl)-7-hydroxy-3,4,12,12a-tetrahydro-1H-[1,4]oxazino[3,4-c]pyrido[2,1-f ][1,2,4]triazine-6,8-dione level at 15 mg/kg, po administered as single dose measured up to 24 hrs by LC-MS/MS analysis; assay type: ADME, organism-based, Muscle tissue; conditions: in vivo
[6] = Cmax in CD1 mouse heart assessed as (12aR)-12-(Diphenylmethyl)-7-hydroxy-3,4,12,12a-tetrahydro-1H-[1,4]oxazino[3,4-c]pyrido[2,1-f ][1,2,4]triazine-6,8-dione level at 15 mg/kg, po administered as single dose measured up to 24 hrs by LC-MS/MS analysis; assay type: ADME, organism-based; set-up: dose 15 mg/kg, route oral; conditions: in vivo
[7] = Half life in CD1 mouse liver assessed as (12aR)-12-(Diphenylmethyl)-7-hydroxy-3,4,12,12a-tetrahydro-1H-[1,4]oxazino[3,4-c]pyrido[2,1-f ][1,2,4]triazine-6,8-dione level at 15 mg/kg, po administered as single dose measured up to 24 hrs by LC-MS/MS analysis; assay type: ADME, organism-based; conditions: in vivo
[8] = Ratio of AUClast in CD1 mouse brain to plasma assessed as (12aR)-12-(Diphenylmethyl)-7-hydroxy-3,4,12,12a-tetrahydro-1H-[1,4]oxazino[3,4-c]pyrido[2,1-f ][1,2,4]triazine-6,8-dione level at 15 mg/kg, po administered as single dose measured up to 24 hrs by LC-MS/MS analysis; assay type: ADME, organism-based
[9] = AUClast in CD1 mouse muscle assessed as (12aR)-12-(Diphenylmethyl)-7-hydroxy-3,4,12,12a-tetrahydro-1H-[1,4]oxazino[3,4-c]pyrido[2,1-f ][1,2,4]triazine-6,8-dione level at 15 mg/kg, po administered as single dose measured up to 24 hrs by LC-MS/MS analysis; assay type: ADME, organism-based, Muscle tissue; conditions: in vivo
[10] = MRTlast in CD1 mouse muscle assessed as (12aR)-12-(Diphenylmethyl)-7-hydroxy-3,4,12,12a-tetrahydro-1H-[1,4]oxazino[3,4-c]pyrido[2,1-f ][1,2,4]triazine-6,8-dione level at 15 mg/kg, po administered as single dose measured up to 24 hrs by LC-MS/MS analysis; assay type: ADME, organism-based, Muscle tissue; conditions: in vivo
[11] = Cmax in CD1 mouse blood assessed as (12aR)-12-(Diphenylmethyl)-7-hydroxy-3,4,12,12a-tetrahydro-1H-[1,4]oxazino[3,4-c]pyrido[2,1-f ][1,2,4]triazine-6,8-dione level at 15 mg/kg, po administered as single dose measured up to 24 hrs by LC-MS/MS analysis; assay type: ADME, organism-based; set-up: dose 15 mg/kg, route oral; conditions: in vivo
[12] = Half life in CD1 mouse small intestine assessed as (12aR)-12-(Diphenylmethyl)-7-hydroxy-3,4,12,12a-tetrahydro-1H-[1,4]oxazino[3,4-c]pyrido[2,1-f ][1,2,4]triazine-6,8-dione level at 15 mg/kg, po administered as single dose measured up to 24 hrs by LC-MS/MS analysis; assay type: ADME, organism-based; conditions: in vivo
[13] = Half life in CD1 mouse kidney assessed as (12aR)-12-(Diphenylmethyl)-7-hydroxy-3,4,12,12a-tetrahydro-1H-[1,4]oxazino[3,4-c]pyrido[2,1-f ][1,2,4]triazine-6,8-dione level at 15 mg/kg, po administered as single dose measured up to 24 hrs by LC-MS/MS analysis; assay type: ADME, organism-based; conditions: in vivo
[14] = Cmax in CD1 mouse plasma assessed as (12aR)-12-(Diphenylmethyl)-7-hydroxy-3,4,12,12a-tetrahydro-1H-[1,4]oxazino[3,4-c]pyrido[2,1-f ][1,2,4]triazine-6,8-dione level at 15 mg/kg, po administered as single dose measured up to 24 hrs by LC-MS/MS analysis; assay type: ADME, organism-based; set-up: dose 15 mg/kg, route oral; conditions: in vivo
[15] = Ratio of Cmax in CD1 mouse lung to plasma assessed as baloxavir acid level at 15 mg/kg, po administered as single dose by LC-MS/MS analysis; assay type: ADME, organism-based; conditions: other tissue
[16] = AUClast in CD1 mouse heart assessed as baloxavir acid level at 15 mg/kg, po administered as single dose measured up to 24 hrs by LC-MS/MS analysis; assay type: ADME, organism-based; conditions: in vivo
[17] = MRTlast in CD1 mouse small intestine assessed as baloxavir acid level at 15 mg/kg, po administered as single dose measured up to 24 hrs by LC-MS/MS analysis; assay type: ADME, organism-based; conditions: in vivo
[18] = AUCinfinity in CD1 mouse plasma assessed as baloxavir acid level at 15 mg/kg, po administered as single dose measured up to 24 hrs by LC-MS/MS analysis; assay type: ADME, organism-based; set-up: dose 15 mg/kg, route oral, time infinity; conditions: in vivo
[19] = Tmax in CD1 mouse kidney assessed as baloxavir acid level at 15 mg/kg, po administered as single dose measured up to 24 hrs by LC-MS/MS analysis; assay type: ADME, organism-based; conditions: in vivo
[20] = Ratio of AUClast in CD1 mouse liver to plasma assessed as baloxavir acid level at 15 mg/kg, po administered as single dose measured up to 24 hrs by LC-MS/MS analysis; assay type: ADME, organism-based; conditions: other tissue
[21] = Cmax in CD1 mouse lung assessed as baloxavir acid level at 15 mg/kg, po administered as single dose by LC-MS/MS analysis; assay type: ADME, organism-based; set-up: dose 15 mg/kg, route oral; conditions: in vivo
[22] = AUClast in CD1 mouse plasma assessed as baloxavir acid level at 15 mg/kg, po administered as single dose measured up to 24 hrs by LC-MS/MS analysis; assay type: ADME, organism-based; set-up: time < 24 hr, dose 15 mg/kg, route oral; conditions: in vivo
[23] = AUCinfinity in CD1 mouse spleen assessed as baloxavir acid level at 15 mg/kg, po administered as single dose measured up to 24 hrs by LC-MS/MS analysis; assay type: ADME, organism-based; set-up: dose 15 mg/kg, route oral, time infinity; conditions: in vivo
[24] = Half life in CD1 mouse liver assessed as baloxavir acid level at 15 mg/kg, po administered as single dose measured up to 24 hrs by LC-MS/MS analysis; assay type: ADME, organism-based; conditions: in vivo

Q: Which Tmax [1] does the source give for `COC(=O)OCOc1c2n(ccc1=O)N(C(c1ccccc1)c1ccccc1)[C@@H]1COCCN1C2=O` here?
A: The Tmax was 0.5 h.

Q: And the Cmax [2]?
A: The Cmax was 98 ng/g.

Q: And the Cmax [3]?
A: The Cmax was 5260 ng/g.

Q: And the Tmax [4]?
A: The Tmax was 0.5 h.

Q: And the Kel [5]?
A: The Kel was 0.4 h⁻¹.

Q: And the Cmax [6]?
A: The Cmax was 2537 ng/g.

Q: What about the t1/2 [7] of the same compound?
A: Its t1/2 is 2.34 h.

Q: What about the “Ratio AUC” value [8] of the same compound?
A: Its value is 0.19.

Q: What about the AUClast [9] of the same compound?
A: The AUClast was 7425 ng·h/g.

Q: And the MRTlast [10]?
A: Its MRTlast is 1.86 h.

Q: What about the Cmax [11] of the same compound?
A: Its Cmax is 951 ng/g.

Q: What about the t1/2 [12] of the same compound?
A: Its t1/2 is 1.28 h.

Q: And the t1/2 [13]?
A: The t1/2 was 2.57 h.

Q: And the Cmax [14]?
A: Its Cmax is 1251 ng/mL.

Q: Which Ratio [15] does the source give for `COC(=O)OCOc1c2n(ccc1=O)N([C@@H]1c3ccccc3SCc3c1ccc(F)c3F)[C@@H]1COCCN1C2=O` [BALOXAVIR MARBOXIL] here?
A: The Ratio was 10.8.

Q: And the AUClast [16]?
A: Its AUClast is 8959 ng·h/g.

Q: What about the MRTlast [17] of the same compound?
A: The MRTlast was 1.58 h.

Q: And the AUC [18]?
A: The AUC was 558 ng·h/mL.

Q: And the Tmax [19]?
A: Its Tmax is 2 h.

Q: And the “Ratio AUC” value [20]?
A: Its value is 189.

Q: And the Cmax [21]?
A: The Cmax was 1517 ng/g.

Q: What about the AUClast [22] of the same compound?
A: The AUClast was 452 ng·h/mL.

Q: And the AUC [23]?
A: The AUC was 3640 ng·h/g.

Q: And the t1/2 [24]?
A: Its t1/2 is 2.57 h.
